Activity calls are given as the source filed them.
Columns and labels:
[1] = PAX8-dependent cell viability loss – plate reader, dry powder, dose response (AID 743049); format: functional, cell-based
[2] = PAX5 cellular inhibition readout – cell-based, plate reader, dry powder samples, selectivity assay for PAX8 inhibitor project, dose response (AID 743047); format: functional;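 note: HEK293 cells carrying a Pax5 driven CD19 promoter luciferase reporter; potency of inhibitors that lower reporter luminescence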
Paired box protein Pax-8 = Paired box protein Pax-8 (Homo sapiens, UniProt Q06710); experiment: PAX8 transcriptional activity inhibition in RMG-I – RMG-I cells, luciferase, cherry-pick, dose response (AID 687027); format: functional, cell-based;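 note: luciferase reporter driven by Pax8 target thyroperoxidase promoter measured by SteadyGlo luminescence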
Vero = experiment: cells; format: functional; details: Chlorocebus sabaeus
[3] = HIV-1 Vif–A3G interaction blockers – biochemical, TR-FRET, GST-Vif 1-94, biotin-A3G peptide, dose response retest, primary screen (AID 1117319); format: functional;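 note: TR-FRET signal of purified GST-Vif binding a biotinylated A3G peptide; inhibitors lower the FRET signal by blocking Vif and A3G binding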
[4] = viability loss in HepG2 hepatoma cells – cell-based, ATP luminescence, cherry-pick, activator set 2, cytotoxicity control, dose response (AID 1053143); format: functional
[5] = molecular target: T1, Oxysterols receptor LXR-beta (Homo sapiens, UniProt P55055); format: functional, cell-based;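 note: agonist activity at LXR measured by a cell-based luminescence readout across a dose range, run as a counterscreen for daf-12 agonists; HEK293 cells with Gal4-LXR fusion and GAL4-driven luciferase reporter; potency for activation of Gal4-LXR reporter so compounds are agonists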
T1 sequence (P55055 whole entry): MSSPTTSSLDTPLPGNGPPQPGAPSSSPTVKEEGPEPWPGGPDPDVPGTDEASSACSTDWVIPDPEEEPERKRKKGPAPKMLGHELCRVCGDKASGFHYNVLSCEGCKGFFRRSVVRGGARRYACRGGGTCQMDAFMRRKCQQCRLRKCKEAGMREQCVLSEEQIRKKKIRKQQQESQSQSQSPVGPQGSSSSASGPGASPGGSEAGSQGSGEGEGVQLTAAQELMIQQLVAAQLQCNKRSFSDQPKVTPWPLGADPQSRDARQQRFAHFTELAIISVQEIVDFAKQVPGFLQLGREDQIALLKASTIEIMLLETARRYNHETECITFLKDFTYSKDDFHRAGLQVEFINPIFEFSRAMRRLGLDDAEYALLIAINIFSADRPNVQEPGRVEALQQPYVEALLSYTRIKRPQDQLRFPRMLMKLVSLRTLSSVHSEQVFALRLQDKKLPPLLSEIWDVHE

Estrogen receptor beta = Estrogen receptor beta (Homo sapiens, UniProt Q92731);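 note: recombinant ER-beta bound to coactivator SRC1 peptide in presence of estradiol agonist; inhibitors block coactivator peptide binding and lower the FRET signal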
Estrogen receptor = molecular target: T2, Estrogen receptor (Homo sapiens, UniProt P03372);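 note: potency for inhibiting coactivator peptide recruitment to the receptor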
T2 sequence (P03372 whole entry): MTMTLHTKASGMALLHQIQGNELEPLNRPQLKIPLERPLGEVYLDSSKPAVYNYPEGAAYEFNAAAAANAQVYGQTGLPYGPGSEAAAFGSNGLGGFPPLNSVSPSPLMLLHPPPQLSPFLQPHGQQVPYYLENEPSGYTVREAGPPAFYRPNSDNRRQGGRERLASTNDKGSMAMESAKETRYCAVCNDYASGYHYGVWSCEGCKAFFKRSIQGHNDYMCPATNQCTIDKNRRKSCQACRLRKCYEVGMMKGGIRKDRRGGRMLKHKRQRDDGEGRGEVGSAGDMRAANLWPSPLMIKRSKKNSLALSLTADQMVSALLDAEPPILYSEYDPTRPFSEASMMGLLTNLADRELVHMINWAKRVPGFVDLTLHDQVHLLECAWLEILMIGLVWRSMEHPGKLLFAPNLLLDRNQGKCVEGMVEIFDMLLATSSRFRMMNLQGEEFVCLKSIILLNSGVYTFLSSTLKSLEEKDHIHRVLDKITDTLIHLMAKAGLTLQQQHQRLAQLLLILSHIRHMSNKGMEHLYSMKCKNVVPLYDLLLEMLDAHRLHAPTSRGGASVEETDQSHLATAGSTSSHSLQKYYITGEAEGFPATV

[6] = Luminescence Cell-Based Dose Retest to Confirm Inhibitors of Cancer Stem Cells. [Related pubchem assays (depositor defined):AID2717, AID2721]; format: functional; details: Homo sapiens
[7] = molecular target: Heat shock protein HSP 90-alpha (Homo sapiens, UniProt P07900); format: functional, organism-based
[8] = molecular target: Luciferin 4-monooxygenase (Photinus pyralis, UniProt P08659); experiment: inhibition of purified Photinus pyralis luciferase – biochemical, luminescence, dose response (AID 1891)
[9] = Luminescence Cell-Based Dose Confirmation HTS to Identify Inhibitors of Platelet Dense Granule Release. [Related pubchem assays: 1663 (Primary HTS), 1678 (Summary of Project)]; format: functional
Protein Tat = molecular target: T3, Protein Tat (Human immunodeficiency virus type 1 group M subtype B (isolate HXB2)(HIV-1), UniProt P04608); format: functional;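 note: tat binding to TAR RNA read out by fluorescence polarization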
T3 sequence (P04608 whole entry): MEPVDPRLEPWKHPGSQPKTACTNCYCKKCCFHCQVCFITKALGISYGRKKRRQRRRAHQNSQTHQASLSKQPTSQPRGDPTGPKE

Cytochrome P450 2C19 = Cytochrome P450 2C19 (Homo sapiens, UniProt P33261); experiment: Cytochrome panel assay with activity outcomes. Panel member name: p450-cyp2c19 Compounds with AC50 equal or less than 10 uM are considered active; format: functional
Cytochrome P450 2C9 = Cytochrome P450 2C9 (Homo sapiens, UniProt P11712)
Fatty acid synthase [10] = molecular target: T4, Fatty acid synthase (Homo sapiens, UniProt P49327); experiment: inhibition of human FAS-TE enzyme activity – biochemical, endpoint fluorescence intensity, uHTS hits, dose response (AID 624327); format: functional;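 note: fluorescence from hydrolysis of an O-methyl fluorescein acyl ester substrate by the enzyme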
Fatty acid synthase [11] = molecular target: T4, Fatty acid synthase; experiment: inhibition of human FAS-TE enzyme activity – biochemical, kinetic fluorescence intensity, dose response (AID 624326); format: functional;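 note: rate of fluorescence rise from hydrolysis of a fluorogenic O-methyl fluorescein ester substrate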
cells [12] = experiment: cells
Major prion protein = Major prion protein (Homo sapiens, UniProt P04156); format: functional, cell-based
[13] = molecular target: T5, Trace amine-associated receptor 1 (Homo sapiens, UniProt Q96RJ0); experiment: Counterscreen for agonists of the human trace amine associated receptor 1 (hTAAR1): Fluorescence-based cell-based high throughput dose response assay to identify hTAAR1 agonist that also desensitize TAAR1 receptor response.; format: functional
T5 sequence (Q96RJ0 whole entry): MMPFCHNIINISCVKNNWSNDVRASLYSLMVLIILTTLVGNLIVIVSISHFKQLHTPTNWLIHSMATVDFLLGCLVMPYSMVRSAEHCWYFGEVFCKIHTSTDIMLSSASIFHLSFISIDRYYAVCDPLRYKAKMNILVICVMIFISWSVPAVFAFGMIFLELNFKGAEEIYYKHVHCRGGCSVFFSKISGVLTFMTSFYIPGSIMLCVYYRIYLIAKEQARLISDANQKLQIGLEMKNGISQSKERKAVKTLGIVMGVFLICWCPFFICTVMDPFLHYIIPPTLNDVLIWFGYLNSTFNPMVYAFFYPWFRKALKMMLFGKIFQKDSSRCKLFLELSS

cells [14] = format: functional, cell-based
cells [15] = format: functional, cell-based; remark: listed apart in the source
[16] = molecular target: T5, Trace amine-associated receptor 1; experiment: Fluorescence-based cell-based high throughput dose response assay to identify agonists of the human trace amine associated receptor 1 (TAAR1).; format: functional

O=C1/C(=C/c2cccc(Br)c2)SC(=S)N1CCC(=O)N(CCO)c1ccccc1
AC50 [1]: 34.3 µM (active)
AC50 [2]: 91.4 µM (active)
AC50 (Paired box protein Pax-8): 8.17 µM (active)
CC50 (Vero): > 25 µM (active)

Cc1ccc(C2SCC(=O)N2Cc2cn3ccsc3n2)o1 (stereo unspecified)
IC50 [3]: > 100 µM (active)

O=C(NCC1CCCO1)c1ccc2c3n(nc2c1)-c1ccccc1CO3 (stereo unspecified)
AC50 [4]: > 52 µM (inactive)

O=C(Nc1ccccn1)c1csc2c1CCCC2
EC50 [5]: > 67.5 µM (inactive)

O=C(CCC(=O)Nc1nnc(C2CCCCC2)s1)NCC1CCCO1 (stereo unspecified)
IC50 (Estrogen receptor beta): > 50 µM (not active)
IC50 (Estrogen receptor): > 50 µM (not active)

CC(Cc1ccccc1)NCCC(c1ccccc1)c1ccccc1 (stereo unspecified)
AC50 [6]: 10 µM (active)
AC50 [4]: 14.8 µM (active)

Oc1ccc(N=Nc2ccc3ccccc3c2)cc1
AC50 [7]: 4.38 µM (active)
EC50 [8]: 0.712 µM (active)
AC50 [6]: 3.06 µM (active)
EC50 [5]: > 67.5 µM (inactive)
EC50 [9]: 3.76 µM (active)

O=C1NC(=O)C(=CN2CCc3ccccc32)C(=O)N1
IC50 (Protein Tat): > 100 µM (active)

COc1ccc(/C=C(/NC(C)=O)C(=O)O)cc1
IC50 [3]: > 100 µM (active)
AC50 (Cytochrome P450 2C19): 11.2 µM (inconclusive)
AC50 (Cytochrome P450 2C9): 10 µM (inconclusive)

CCc1cc2c(CN3CCN(CC)CC3)cc(=O)oc2cc1O
IC50 [3]: > 100 µM (active)

Cc1ccc(NC(=O)c2cc(S(=O)(=O)N(C)C)ccc2N2CCCC2)cc1F
IC50 (Fatty acid synthase [10]): 13.3 µM (active)
IC50 (Fatty acid synthase [11]): 6.47 µM (active)
IC50 (cells [12]): > 138 µM (inactive)
IC50 (Major prion protein): 9.92 µM (active)

O=C(CC(NCCc1ccccc1)C(=O)O)Nc1ccc(O)cc1 (stereo unspecified)
IC50 [13]: > 29.9 µM (inactive)
IC50 (cells [14]): > 29.9 µM (inactive)
EC50 (cells [15]): > 29.9 µM (inactive)
EC50 [16]: 7.65 µM (active)

O=C(CSc1ncnc2ccccc12)NCCc1ccccc1
IC50 (cells [12]): > 138 µM (inactive)
IC50 (Major prion protein): 6.69 µM (active)

Source: ChEMBL document CHEMBL1201862, “PubChem BioAssay data set” (2004)
